Assay results published in the supplement of paper PMC10307832.

Columns and labels:
Test in all cases: relative viability (nuclei count vs DMSO), 5 days (fraction); higher = more cells survive
BAY61-3606 + Dasatinib = compound: COC1=C(C=C(C=C1)C2=CC3=NC=CN3C(=N2)NC4=C(C=CC=N4)C(=O)N)OC [BAY61-3606] + Cc1nc(Nc2ncc(C(=O)Nc3c(C)cccc3Cl)s2)cc(N2CCN(CCO)CC2)n1 [Dasatinib] (partner 0.075 µM)
Outline: (§1)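 The day after seeding in 1536-well plates, lung cancer cell lines were treated by pin tool with a single drug, or with a fixed anchor-drug dose together with five library-drug doses (not always all listed) in √10 steps. After 5 days, a combined fix-and-stain solution (final 0.05% Triton X-100, 1% formaldehyde, 1 ug/ml Hoechst) was added. Nuclei counted on 4× images gave relative viability as treated counts over vehicle counts, reported as the median of duplicate plates.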

BAY61-3606 + Alpelisib = compound: COC1=C(C=C(C=C1)C2=CC3=NC=CN3C(=N2)NC4=C(C=CC=N4)C(=O)N)OC [BAY61-3606] + Cc1nc(NC(=O)N2CCC[C@H]2C(N)=O)sc1-c1ccnc(C(C)(C)C(F)(F)F)c1 [Alpelisib] (partner 2 µM)
Outline: as §1

Doxorubicin + Foretinib = compound: COc1cccc2c1C(=O)c1c(O)c3c(c(O)c1C2=O)C[C@@](O)(C(=O)CO)C[C@@H]3O[C@H]1C[C@H](N)[C@H](O)[C@H](C)O1 [Doxorubicin] + COc1cc2c(Oc3ccc(NC(=O)C4(C(=O)Nc5ccc(F)cc5)CC4)cc3F)ccnc2cc1OCCCN1CCOCC1 [Foretinib] (partner 0.25 µM)
Outline: as §1

Doxorubicin + Phenformin = compound: COc1cccc2c1C(=O)c1c(O)c3c(c(O)c1C2=O)C[C@@](O)(C(=O)CO)C[C@@H]3O[C@H]1C[C@H](N)[C@H](O)[C@H](C)O1 [Doxorubicin] + N=C(N)NC(=N)NCCc1ccccc1 [Phenformin] (partner 250 µM)
Outline: as §1

Cell Line	relative viability (BAY61-3606 + Dasatinib; first compound 0.02 µM)	relative viability (BAY61-3606 + Dasatinib; first compound 0.06325 µM)	relative viability (BAY61-3606 + Dasatinib; first compound 0.2 µM)	relative viability (BAY61-3606 + Dasatinib; first compound 0.6325 µM)	relative viability (BAY61-3606 + Dasatinib; first compound 2 µM)	relative viability (BAY61-3606 + Alpelisib; first compound 0.02 µM)	relative viability (BAY61-3606 + Alpelisib; first compound 0.06325 µM)	relative viability (BAY61-3606 + Alpelisib; first compound 0.2 µM)	relative viability (BAY61-3606 + Alpelisib; first compound 0.6325 µM)	relative viability (BAY61-3606 + Alpelisib; first compound 2 µM)	relative viability (Doxorubicin + Foretinib; first compound 0.001 µM)	relative viability (Doxorubicin + Foretinib; first compound 0.003162 µM)	relative viability (Doxorubicin + Foretinib; first compound 0.01 µM)	relative viability (Doxorubicin + Foretinib; first compound 0.03162 µM)	relative viability (Doxorubicin + Foretinib; first compound 0.1 µM)	relative viability (Doxorubicin + Phenformin; first compound 0.001 µM)	relative viability (Doxorubicin + Phenformin; first compound 0.003162 µM)	relative viability (Doxorubicin + Phenformin; first compound 0.01 µM)	relative viability (Doxorubicin + Phenformin; first compound 0.03162 µM)	relative viability (Doxorubicin + Phenformin; first compound 0.1 µM)
201T	0.545	0.509	0.546	0.548	0.571	1.07	1.03	1.05	1.1	1.09	0.963	1.03	1.02	0.898	0.523	0.442	0.476	0.468	0.416	0.432
A549	–	–	–	–	–	0.81	0.658	0.846	0.718	0.573	0.911	1.1	0.927	0.684	0.29	–	0.142	0.149	0.137	0.0431
A-427	0.722	0.681	0.673	0.765	0.647	1.11	1.13	1.1	1.07	1.06	0.981	1.13	0.97	1.02	1.05	0.263	0.337	0.292	0.337	0.33
ABC-1	0.658	0.653	0.557	0.553	0.476	1.06	1.14	1.15	0.968	1.06	1.48	1.13	1.02	0.676	0.339	0.223	0.161	0.206	0.188	0.156
BEN	0.342	0.309	0.296	0.318	0.321	1.23	0.831	1.24	1.24	0.958	0.978	0.678	0.612	0.49	0.582	0.251	0.231	0.278	0.256	0.283
CAL-12T	0.495	0.383	0.404	0.479	0.131	1.21	1.28	1.11	1.4	0.607	1.03	1.07	1.04	0.568	0.35	0.514	0.538	0.412	0.221	0.129
COR-L23	0.609	0.548	0.504	0.467	0.316	0.868	0.764	0.753	0.78	0.486	0.964	1.06	0.918	0.64	0.221	0.422	0.501	0.43	0.224	0.131
Calu-6	–	–	–	–	–	1.04	1.13	0.946	0.956	0.703	0.945	1.01	0.828	0.619	0.362	–	–	–	–	–
ChaGo-K-1	0.566	0.547	0.591	0.548	0.596	–	–	–	–	–	1.03	0.946	0.835	0.937	0.826	0.438	0.522	0.503	0.363	0.223
EBC-1	–	–	–	–	–	0.907	0.902	0.869	0.928	0.686	0.114	0.1	0.0884	0.0952	0.0885	–	–	–	–	–
HCC-44	–	–	–	–	–	0.866	0.909	0.806	0.997	0.833	–	–	–	–	–	0.207	0.244	0.341	0.151	0.162
IA-LM	–	–	–	–	–	0.805	–	0.98	0.748	0.661	1.04	1.13	1.2	1.1	1.06	–	–	–	–	–
NCI-H522	0.838	0.792	0.975	0.832	0.747	–	–	–	–	–	–	–	–	–	–	0.595	0.622	0.585	0.543	0.645
NCI-H1299	–	–	–	–	–	1.05	1.08	1.07	1	1.03	1.1	1.11	1.1	1.16	1.05	–	–	–	–	–
NCI-H1623	0.556	0.557	0.533	0.522	0.501	–	–	–	–	–	0.766	0.815	0.895	0.798	0.78	0.533	0.561	0.575	0.528	0.502
NCI-H1650	0.304	0.261	0.3	0.296	0.245	–	–	–	–	–	0.967	1.38	0.859	0.291	0.181	0.365	0.35	0.222	0.126	0.11
NCI-H1703	–	–	–	–	–	0.377	0.385	0.317	0.305	0.218	–	0.304	0.3	–	0.24	–	–	–	–	–
NCI-H1792	0.858	0.76	0.809	0.83	0.535	0.743	0.673	0.74	0.751	0.674	–	–	–	–	–	–	0.299	0.262	0.337	0.19
NCI-H2342	0.297	0.32	0.319	0.311	0.367	–	–	–	–	–	1.08	1.08	1.06	0.791	1.17	0.638	0.54	0.527	0.552	0.553
SW 900	0.84	0.559	0.706	0.457	0.303	–	–	–	–	–	0.929	1.06	0.727	0.727	0.958	0.704	0.685	0.607	0.328	0.138
